Experimental data reported in PubChem BioAssay (NCI).
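Step 1: Grow cells in 96-well plates. Step 2: Expose to compound for 48 hours at 5 concentrations. Step 3: Interpolate endpoints linearly; if unreached, use highest concentration. Definition used: TGI = concentration required for complete inhibition of growth.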

Columns and labels:
Test in all cases: NCI-60 cell line screen, 48 h
[1] = tested on: HCC-2998 colon
[2] = tested on: SN12C renal
[3] = tested on: RPMI-8226 leukemia
[4] = tested on: HOP-92 NSCLC
[5] = tested on: HCT-116 colon
[6] = tested on: UACC-257 melanoma
[7] = tested on: DU-145 prostate
[8] = tested on: HS 578T breast
[9] = tested on: SR leukemia
[10] = tested on: NCI-H23 lung
[11] = tested on: OVCAR-4 ovarian
[12] = tested on: OVCAR-8 ovarian

Row | Structure (SMILES) | TGI [1] | TGI [2] | TGI [3] | TGI [4] | TGI [5] | TGI [6] | TGI [7] | TGI [8] | TGI [9] | TGI [10] | TGI [11] | TGI [12]
1 | O=C1C(Br)=Cc2c(Cl)sc(Cl)c21 | 7.71 µM | 18.4 µM | 2.98 µM | 7 µM | 6.25 µM | > 28.5 µM | 18 µM | > 93.8 µM | 15.5 µM | 30.6 µM | 8.81 µM | 33.3 µM
2 | O=c1c2cc(I)ccc2[nH]c(=S)n1Cc1ccccc1 | > 100 µM | > 100 µM | > 100 µM | 63.2 µM | > 100 µM | > 100 µM | > 100 µM | 58.9 µM | > 100 µM | > 100 µM | > 100 µM | > 100 µM
3 | O=C1CC(c2ccc([N+](=O)[O-])cc2)C2(C(=O)NC(=S)NC2=O)C(c2ccc([N+](=O)[O-])cc2)C1 (configuration not stated) | 49.8 µM | 53.4 µM | > 100 µM | > 100 µM | 32.4 µM | 40.9 µM | 83.3 µM | 88.2 µM | > 100 µM | 64.1 µM | > 100 µM | 45.1 µM
4 | Cc1cccc(N(CCC#N)S(=O)(=O)c2ccccc2)c1 | > 100 µM | > 100 µM | > 100 µM | > 100 µM | > 100 µM | > 100 µM | > 100 µM | > 100 µM | > 100 µM | > 100 µM | > 100 µM | > 100 µM
5 | CN(O)C(=O)Cc1ccc(OCc2cccc(Cl)c2)cc1 | > 100 µM | > 100 µM | > 100 µM | > 100 µM | > 100 µM | > 100 µM | > 100 µM | > 100 µM | > 100 µM | > 100 µM | > 100 µM | > 100 µM
6 | O=C1/C(=C/c2ccc([N+](=O)[O-])cc2)CNC/C1=C\c1ccc([N+](=O)[O-])cc1 | 23.4 µM | 15.5 µM | 2.75 µM | 59 µM | 1.97 µM | > 100 µM | 35.6 µM | > 64.9 µM | 1.15 µM | 9.77 µM | > 50.9 µM | 8.36 µM
7 | O=C(O)c1ccc(NS(=O)(=O)Cc2ccccc2)cc1 | > 100 µM | > 100 µM | > 100 µM | > 100 µM | > 100 µM | > 100 µM | > 100 µM | > 100 µM | > 100 µM | > 100 µM | > 100 µM | > 100 µM
8 | C/C(=N/NC(=S)Nc1cccc(C)c1)c1ccccn1 | 4.18 µM | 6.61 µM | 13.7 µM | 6.12 µM | 3.11 µM | 4.44 µM | 8.29 µM | 41.1 µM | 2.92 µM | 9.92 µM | 8.93 µM | 2.33 µM
9 | c1ccc2c(c1)CCCN1CCc3ccccc3C21 (configuration not stated) | > 100 µM | > 100 µM | > 100 µM | > 100 µM | > 100 µM | > 100 µM | > 100 µM | > 100 µM | > 100 µM | > 100 µM | > 100 µM | > 100 µM
10 | CCOC(=O)c1c(SCCN2CCCC2)n(-c2ccccc2)c(=S)n(-c2ccccc2)c1=O | 3.53 µM | 3.18 µM | 5.87 µM | 4.48 µM | 8.39 µM | 3.34 µM | 3.11 µM | > 100 µM | 2.05 µM | 27.4 µM | 27 µM | 4.29 µM
11 | CC(=O)OCC1OC(n2c(=S)[nH]c(-c3ccccc3)c(C#N)c2=O)C(OC(C)=O)C(OC(C)=O)C1OC(C)=O (configuration not stated) | > 100 µM | > 100 µM | > 100 µM | > 100 µM | > 100 µM | > 100 µM | > 100 µM | > 100 µM | > 100 µM | > 100 µM | > 100 µM | > 100 µM
12 | O=C(O)Cc1ccc2nc(COC(=O)c3ccccc3)sc2c1 | > 100 µM | > 100 µM | > 100 µM | > 100 µM | > 100 µM | > 100 µM | > 100 µM | > 100 µM | > 100 µM | > 100 µM | > 100 µM | > 100 µM
13 | CCOC(=O)C1C(=O)CC(O)(c2ccccc2)C(C(=O)OCC)C1c1ccc(OC)cc1 (configuration not stated) | > 100 µM | > 100 µM | 40.6 µM | > 82 µM | > 47 µM | > 100 µM | > 100 µM | 53.7 µM | 32.5 µM | > 100 µM | > 100 µM | > 100 µM
14 | N#CC(C#N)=C1CCCS(=O)(=O)c2ccccc21 | > 100 µM | > 100 µM | > 100 µM | > 100 µM | > 100 µM | > 100 µM | > 100 µM | > 100 µM | > 100 µM | > 100 µM | > 100 µM | > 100 µM
15 | COC(=O)CCCC(=O)C(=Nc1c(Cl)cccc1Cl)NNc1ccc(Cl)cc1 | > 100 µM | > 100 µM | > 100 µM | > 100 µM | > 100 µM | > 100 µM | > 100 µM | > 100 µM | > 100 µM | > 100 µM | > 100 µM | > 100 µM
16 | COC(=O)C1CC(C=[N+](C)C)=C(SC)N1 (configuration not stated) | > 100 µM |  | > 100 µM | > 100 µM | > 100 µM | > 100 µM | > 100 µM | > 100 µM | > 100 µM | > 100 µM | > 100 µM | > 100 µM
17 | CC1=CC(=O)N(n2c(C)n[nH]c2=O)C1=O | > 100 µM | > 100 µM | > 100 µM | > 100 µM | > 100 µM | > 100 µM | > 100 µM | > 100 µM | > 100 µM | > 100 µM | > 100 µM | > 100 µM
18 | CC1=CC=CC(C)(C)CC1(O[Si](C)(C)C)C(F)(F)F (configuration not stated) | > 100 µM | > 100 µM | > 100 µM | > 100 µM | > 100 µM | > 100 µM | > 100 µM | > 100 µM | > 100 µM | > 100 µM | > 100 µM | > 100 µM
19 | O=c1nc2c(c(-c3cccc(Cl)c3)[nH]1)COC/C2=C\c1cccc(Cl)c1 | > 100 µM | > 100 µM | > 100 µM | > 100 µM | > 100 µM | > 100 µM | > 100 µM | > 100 µM | > 100 µM | > 100 µM | > 100 µM | > 100 µM
20 | O=C1OC[C@@H]2Cc3c([nH]c4ccccc34)[C@@H](c3ccc(O)cc3)N12 | > 96.7 µM | > 89.7 µM | > 80.9 µM | > 100 µM | 35 µM | 72.2 µM | > 100 µM | > 100 µM | > 87.4 µM | 54.6 µM | > 86.4 µM | > 71.7 µM
21 | CCOP(=O)(OCC)/C(F)=C/c1ccccc1 | > 100 µM | > 100 µM | > 100 µM | > 100 µM | > 100 µM | > 100 µM | > 100 µM | > 100 µM | > 100 µM | > 100 µM | > 100 µM | > 100 µM
22 | CN1C(=O)CN(NC(=O)C2=C(O)c3ccc(Br)cc3S(=O)(=O)N2)C1=S | > 100 µM | > 100 µM | > 100 µM | > 100 µM | > 100 µM | > 100 µM | > 100 µM | > 100 µM | > 100 µM | > 100 µM | > 100 µM | > 100 µM
23 | CN1CN(c2ccccc2)C2(CCN(CCCC3(c4cccs4)OCCO3)CC2)C1=O | > 100 µM | > 100 µM | > 100 µM | > 100 µM | > 100 µM | > 100 µM | > 100 µM | > 100 µM | > 100 µM | > 100 µM | > 100 µM | > 100 µM
24 | C(=Nc1ccc(-c2nc3ccccc3s2)cc1)c1ccco1 | > 100 µM | > 100 µM | > 100 µM | > 100 µM | > 100 µM | > 100 µM | > 100 µM | > 100 µM | > 100 µM | > 100 µM | > 100 µM | > 100 µM
